The numbers were not newly measured in patent publication US5846980A, “N-(benzhydryloxyalkyl)-4-(carboxy/carbamoyl methyl)-piperidine derivatives as antidepressants” (Cooperation Pharmaceutique Francaise, priority 1994, dated 1998), which cites them from elsewhere.

In series [1] the test system is sleep induced by phenobarbital. The following applies: in vivo.
Series [2] has as its system motor activity of the animals. The following applies: in vivo.
For a further series, the system named is stereotypic behaviors. The conditions noted are these: in vivo.
The subject of series [3] is immobility time of the mouse.
For series [4], the system named is ptosis and hypothermia induced by reserpine. The following applies: in vivo.

In the case of “1-[2-(Diphenylmethoxy)ethyl]-4-(3-phenylpropenyl)piperazine”, the “sleep induced by phenobarbital” value in series [1] is recorded as “decreases the sleep induced by phenobarbital”. Further, the “motor activity of the animals” value in series [2] is reported as “increases the motor activity of the animals”. The stereotypic behaviors entry in the series on stereotypic behaviors was “induces stereotypic behaviors”. Moreover, the “immobility time in the behavioral despair test” value in series [3] is given as “decreases the immobility time of the mouse”. In series [4], the “antagonism of the hypothermia induced by reserpine” value is listed as “antagonizes neither the ptosis nor the hypothermia induced by reserpine” and the “antagonism of the ptosis induced by reserpine” value was “antagonizes neither the ptosis nor the hypothermia induced by reserpine”.
Consider `CN1Cc2c(N)cccc2C(c2ccccc2)C1` (stereo not drawn) [1,2,3,4-tetrahydro-2-methyl-4-phenyl-8-isoquinolinamine], for which the “antidepressant activity in human clinical studies” value in the series on antidepressant activity is recorded as “this effect is demonstrated in human clinical studies”.
For the compound `c1ccc2sc(C3(N4CCCCC4)CCCCC3)cc2c1` [1-[1-(2-Benzo[b]thiophenyl)cyclohexyl]piperidine], the “inhibition of dopamine re-uptake” value with dopamine re-uptake was “inhibit dopamine and noradrenaline re-uptake”. Further, the “inhibition of noradrenaline re-uptake” value in the series on noradrenaline re-uptake was “inhibit dopamine and noradrenaline re-uptake”.
